Results as given in ChEMBL document CHEMBL1201862, “PubChem BioAssay data set” (2004).
Calls of active or inactive are those of the source.

How the values were obtained:
[1] = target: Major prion protein (Homo sapiens, UniProt P04156); assay type: functional, cell-based
[2] = cells
[3] = target: fMet-Leu-Phe receptor (Homo sapiens, UniProt P21462); assay: FPR ligands, dose response (AID 519); assay type: functional
[4] = target: Cytochrome P450 2D6 (Homo sapiens, UniProt P10635);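 also: CYP2D6 member of a cytochrome P450 panel assay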
[5] = human group III sPLA2 inhibitors, dose response, biochemical, QFRET, IC50 (AID 743457);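 also: green fluorescence rise as the enzyme cleaves BODIPY PC-A2 in liposomes; potency for inhibition of the enzyme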
[6] = test system: HEK293; assay: inhibitors of LMP1-driven NF-kB reporter, dose response, cell-based, HEK293, luciferase, cherry-pick (AID 588343); assay type: functional; details: Homo sapiens
[7] = CEM21 lymphoblast cell cytotoxicity, dose response, cytotoxicity control for viral fusion inhibitor project, CellTiter-Glo luminescence, cherry-picked (AID 652042); assay type: functional, cell-based;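 also: potency for signal decrease meaning cytotoxicity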
[8] = target: T1, Oxysterols receptor LXR-beta (Homo sapiens, UniProt P55055); assay: LXR agonists, Gal4 luciferase reporter, dose response, counter-screen for ssDAF-12 agonist project, cell-based, luminescence, HEK293, S. stercoralis campaign (AID 720737); assay type: functional; details: read-out: IC50 (the source's name)
T1 sequence (P55055 whole entry): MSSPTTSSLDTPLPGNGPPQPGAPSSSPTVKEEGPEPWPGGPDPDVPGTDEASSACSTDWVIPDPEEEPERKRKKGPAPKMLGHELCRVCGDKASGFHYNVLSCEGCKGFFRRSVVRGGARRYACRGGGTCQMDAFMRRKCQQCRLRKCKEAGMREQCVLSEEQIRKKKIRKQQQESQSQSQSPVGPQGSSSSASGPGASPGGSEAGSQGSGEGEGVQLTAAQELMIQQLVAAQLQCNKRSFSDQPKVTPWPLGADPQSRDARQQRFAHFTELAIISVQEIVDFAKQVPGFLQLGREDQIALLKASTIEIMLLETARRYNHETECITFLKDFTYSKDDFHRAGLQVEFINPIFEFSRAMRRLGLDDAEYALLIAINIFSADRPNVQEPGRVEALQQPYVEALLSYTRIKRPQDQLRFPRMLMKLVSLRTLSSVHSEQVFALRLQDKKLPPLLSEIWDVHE

[9] = Luminescence-based cell-based high throughput dose response assay to identify activators of the DAF-12 from the parasite S. stercoralis (ssDAF-12).; assay type: functional
[10] = target: T2, Voltage-gated N-type calcium channel alpha-1B subunit/Amyloid beta A4 precursor protein-binding family A member 1 (Homo sapiens, UniProt Q00975+Q02410); assay type: protein assay
[11] = target: Caspase-6 (Homo sapiens, UniProt P55212); assay: human caspase-6 inhibitors, dose response, biochemical, VEID-R110 fluorescence, cherry-pick (AID 720632)
[12] = target: NAD-dependent protein deacylase sirtuin-5, mitochondrial (Homo sapiens, UniProt Q9NXA8); assay: SIRT5 desuccinylase inhibitors, dose response, biochemical, fluorescence imaging, cherry-pick, set 5 (AID 720591);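 also: desuccinylation of succinyl peptide AMC substrate read as fluorescence after trypsin release; potency of inhibitors that lower fluorescence and may act on trypsin instead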
[13] = target: T2, Voltage-gated N-type calcium channel alpha-1B subunit/Amyloid beta A4 precursor protein-binding family A member 1; assay type: protein assay; remark: listed apart in the source
[14] = target: T3, Corticotropin-releasing factor receptor 2/Corticotropin-releasing factor-binding protein (Homo sapiens, UniProt P24387+Q13324); assay: activators of CRF receptor 2 with binding protein – uHTS hits, confirmation (AID 602473); assay type: functional; details: read-out: EC50_Mean
T3 sequence (Q13324 whole entry): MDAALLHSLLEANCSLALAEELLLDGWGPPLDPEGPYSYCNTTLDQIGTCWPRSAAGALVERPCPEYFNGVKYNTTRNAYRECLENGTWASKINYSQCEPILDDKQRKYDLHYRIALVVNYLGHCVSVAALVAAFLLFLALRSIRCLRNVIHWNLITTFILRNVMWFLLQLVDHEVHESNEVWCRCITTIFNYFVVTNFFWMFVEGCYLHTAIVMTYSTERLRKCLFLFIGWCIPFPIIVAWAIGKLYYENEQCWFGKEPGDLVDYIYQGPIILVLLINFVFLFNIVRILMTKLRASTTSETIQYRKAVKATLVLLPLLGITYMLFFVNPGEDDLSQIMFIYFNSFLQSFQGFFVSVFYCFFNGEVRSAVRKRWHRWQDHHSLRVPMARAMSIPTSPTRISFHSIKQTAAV
T3 sequence (P24387 whole entry): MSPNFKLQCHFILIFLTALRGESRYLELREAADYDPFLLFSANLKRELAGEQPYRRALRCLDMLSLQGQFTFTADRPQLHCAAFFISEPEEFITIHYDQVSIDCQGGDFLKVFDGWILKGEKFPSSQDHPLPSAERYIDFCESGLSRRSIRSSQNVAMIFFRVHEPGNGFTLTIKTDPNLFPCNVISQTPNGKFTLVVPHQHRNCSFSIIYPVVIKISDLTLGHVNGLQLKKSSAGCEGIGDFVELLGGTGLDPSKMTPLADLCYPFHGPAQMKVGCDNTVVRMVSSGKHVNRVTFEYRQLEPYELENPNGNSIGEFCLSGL

[15] = target: T3, Corticotropin-releasing factor receptor 2/Corticotropin-releasing factor-binding protein; assay: Dose Response confirmation of uHTS hits for small molecule antagonists of the CRF-binding protein and CRF-R2 receptor complex.; assay type: functional; details: read-out: IC50_Mean

Cc1ccc(NS(=O)(=O)c2cc(C(=O)NCc3ccccn3)ccc2Cl)cc1C
IC50 [1]: 13 µM (inactive) | IC50 [2]: > 138 µM (inactive)

CCOC(=O)c1ccc(NC(=O)Nc2ccc3c4c(cccc24)C(=O)N3CC)cc1
Ki [3]: > 66.7 µM (inactive) | AC50 [4]: 17.8 µM (inconclusive)

NC(=S)NN=Cc1nccc2c(C(F)(F)C(F)(F)C(F)(F)F)cccc12
IC50 [5]: 31.9 µM (inactive) | AC50 [6]: 0.643 µM (active)

COc1ccc(S(=O)(=O)N2CCCCC2)cc1NC(=O)CN(Cc1ccco1)Cc1ccco1
AC50 [7]: 68.8 µM (active)

CCn1cc(C(=O)NC2CCC(C)CC2)c(=O)c2cc(S(=O)(=O)N3CCCCC3)ccc21 (centres undefined)
Ki [3]: > 66.7 µM (inactive)

O=c1oc(-c2cc3ccccc3o2)nc2sc3c(c12)CCCC3
EC50 [8]: > 67.5 µM (inactive) | IC50 [9]: > 67.5 µM (inactive)

CCc1nc(SCC(=O)Nc2ccc(N(C)C)cc2)c2ccccc2n1
IC50 [1]: 4.47 µM (active) | IC50 [2]: > 138 µM (inactive)

COc1cc2c(cc1OC)-c1cc(Nc3ccc(C(=O)O)cc3)nc(=O)n1CC2
IC50 [10]: 17.6 µM (active) | AC50 [11]: 28.9 µM (active) | AC50 [12]: 4.29 µM (active) | IC50 [13]: > 50 µM (inactive) | EC50 [14]: > 53 µM (inactive) | IC50 [15]: > 47.1 µM (inactive)

O=C(NN=C(S)Nc1cccc(Cl)c1)c1ccccc1OC(F)F
IC50 [5]: > 122 µM (inactive)
